This assay deals with CCR5 (Homo sapiens (Human), UniProt P51681). Description: Calcium mobilization assay in HOS-CCR5 cells. It counts as cell-based. Here is the method:
We then conducted the calcium mobilization assay to further test both the agonist and antagonist properties of the newly synthesized compounds in the HOS-CCR5 (stably transfected for the expression of CCR5) cells using our reported protocol, as calcium mobilization is associated with the activation of CCR5. Prior to the assay, the HOS-CCR5 cells were transiently transfected with a Gqi5 to boost calcium signaling levels.
In the antagonism assay, these compounds were assessed for their ability to inhibit CCL5-stimulated Ca^2+ mobilization.
HOS-CCR5 cells were transfected with Gqi5 pcDNA16 using Lipofectamine 2000 (Invitrogen) according to the manufacturer's recommended procedure and maintained in RPMI 1640 supplemented with 10% fetal bovine serum, 100 μg/mL penicillin, 100 μg/mL streptomycin, and 1 mg/mL G418 at 37° C. and 5% C02. 48 h after transfection, a total of 2,500,000 cells were spun down and brought back up in 8 mL of 50:1 HBSS: HEPES assay buffer. Cells were then plated at 25,000 cells per well into a clear bottom, black 96-well plate (Greiner Bio-one) and 50 μL of Fluo4 loading buffer [40 μL of 2 μM Fluo4-AM (Invitrogen), 100 μL of 2.5 mM probenecid, in 5 mL of assay buffer] was added to bring the volume up to 130 μL. After incubating for 45 min, 50 μL of varying concentrations of tested compounds were added and the plate was incubated for an additional 15 min. Plates were then read on a FlexStation3 microplate reader (Molecular Devices) at 494/516 ex/em for a total of 120 s. After 16 s of reading, 20 μL of 200 nM CCL5 (Biosource) in assay buffer, or assay buffer alone, was added to the wells to bring the total volume up to 200 μL. The changes in calcium mobilization were monitored and peak height values were obtained using SoftMaxPro software (Molecular Devices). Non-linear regression curves and IC50 values were generated using GraphPad Prism 8.0.1 (GraphPad Software, San Diego, CA). All experiments were repeated at least three times.
(In general: Calcium flux is commonly read through the fluorescence of an indicator in the cells.)

The IC50 is the concentration at which inhibition is half-maximal.

Chain of CCR5 (P51681 whole entry): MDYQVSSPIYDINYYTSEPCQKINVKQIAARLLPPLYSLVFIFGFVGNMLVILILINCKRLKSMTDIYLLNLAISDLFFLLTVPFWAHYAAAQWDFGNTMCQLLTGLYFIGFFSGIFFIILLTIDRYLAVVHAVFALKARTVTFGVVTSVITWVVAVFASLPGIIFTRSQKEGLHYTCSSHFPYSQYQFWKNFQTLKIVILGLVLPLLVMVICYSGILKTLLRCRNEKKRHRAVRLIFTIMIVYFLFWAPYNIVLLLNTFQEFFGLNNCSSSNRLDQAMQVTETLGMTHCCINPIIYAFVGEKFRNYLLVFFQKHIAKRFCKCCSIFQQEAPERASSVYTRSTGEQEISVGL

`CC(C)c1nnc(CCNC(=O)COCC(=O)NCCCCCCCNC(=O)COCC(=O)NC2CC[C@@]3(O)[C@H]4Cc5ccc(O)c6c5[C@@]3(CCN4CC3CC3)[C@H]2O6)n1C1CC2CCC(C1)N2CC[C@H](NC(=O)C1CCC(F)(F)CC1)c1ccccc1` (some centres unmarked) [VZMC013]: the IC50 (HOS-CCR5 transfected with Gqi5, mean ± SEM, read-out: Inhibition of CCL5-stimulated Intracellular Ca2+ Mobilization IC50) is 0.0575 µM. Moreover, the “CCR5 activation (agonism) in Ca2+ mobilization” value (agonist mode, range of concentrations tested) is recorded as “none of these compounds appeared to activate CCR5”.
